Reference: ChEMBL document CHEMBL4622865, “Sulfonamide-based 4-anilinoquinoline derivatives as novel dual Aurora kinase (AURKA/B) inhibitors: Synthesis, biological evaluation and in silico insights” (Bioorg Med Chem, 2020)

Experiments:
UO-31 = experiment: Antitumor activity against human UO31 cells assessed as growth inhibition at 10-'5 M incubated for 48 hrs by SRB assay relative to control; assay type: functional
Aurora kinase B [1] = biological target: T1, Aurora kinase B (Homo sapiens, UniProt Q96GD4); experiment: Inhibition of human Aurora B using [H-LRRASLG] as substrate at 20 uM in presence of [gamma-33P]-ATP incubated for 2 hrs by hotspot kinase assay relative to control
T1 sequence (Q96GD4 whole entry): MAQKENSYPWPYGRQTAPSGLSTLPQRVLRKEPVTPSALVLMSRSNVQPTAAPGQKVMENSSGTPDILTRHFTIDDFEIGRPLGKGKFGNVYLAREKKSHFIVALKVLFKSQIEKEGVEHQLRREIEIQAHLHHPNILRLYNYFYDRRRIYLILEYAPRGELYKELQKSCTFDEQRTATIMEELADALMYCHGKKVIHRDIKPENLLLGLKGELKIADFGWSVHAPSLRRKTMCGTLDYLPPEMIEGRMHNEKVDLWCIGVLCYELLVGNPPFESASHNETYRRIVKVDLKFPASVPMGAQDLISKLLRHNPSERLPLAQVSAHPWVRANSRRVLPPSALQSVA

HCT-15 = experiment: Antitumor activity against human HCT15 cells assessed as growth inhibition at 10-'5 M incubated for 48 hrs by SRB assay relative to control; assay type: functional
[2] = biological target: T2, Aurora kinase A (Homo sapiens) (UniProt O14965); experiment: Inhibition of human Aurora A using [H-LRRASLG] as substrate at 20 uM in presence of [gamma-33P]-ATP incubated for 2 hrs by hotspot kinase assay relative to control
T2 sequence (whole entry): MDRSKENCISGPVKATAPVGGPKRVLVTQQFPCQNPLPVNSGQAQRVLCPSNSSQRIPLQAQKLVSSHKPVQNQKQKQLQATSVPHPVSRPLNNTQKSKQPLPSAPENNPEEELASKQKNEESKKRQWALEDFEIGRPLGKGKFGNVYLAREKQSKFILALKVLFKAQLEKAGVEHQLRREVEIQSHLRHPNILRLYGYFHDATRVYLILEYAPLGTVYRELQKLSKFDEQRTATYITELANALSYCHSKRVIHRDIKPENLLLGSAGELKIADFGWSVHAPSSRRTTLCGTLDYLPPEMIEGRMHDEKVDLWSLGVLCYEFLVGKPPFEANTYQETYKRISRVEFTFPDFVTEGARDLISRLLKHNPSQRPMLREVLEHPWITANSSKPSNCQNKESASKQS

NCI/ADR-RES = experiment: Antitumor activity against human NCI-ADR-RES cells assessed as growth inhibition at 10-'5 M incubated for 48 hrs by SRB assay relative to control; assay type: functional
NCI-H522 = experiment: Antitumor activity against human NCI-H522 cells assessed as growth inhibition at 10-'5 M incubated for 48 hrs by SRB assay relative to control; assay type: functional
A498 = experiment: Antitumor activity against human A498 cells assessed as growth inhibition at 10-'5 M incubated for 48 hrs by SRB assay relative to control; assay type: functional
T47D = experiment: Antitumor activity against human T47D cells assessed as growth inhibition at 10-'5 M incubated for 48 hrs by SRB assay relative to control; assay type: functional
IGROV-1 = experiment: Antitumor activity against human IGROV1 cells assessed as growth inhibition at 10-'5 M incubated for 48 hrs by SRB assay relative to control; assay type: functional
MCF7 = experiment: Antitumor activity against human MCF7 cells assessed as growth inhibition at 10-'5 M incubated for 48 hrs by SRB assay relative to control; assay type: functional
SNB-75 = experiment: Antitumor activity against human SNB75 cells assessed as growth inhibition at 10-'5 M incubated for 48 hrs by SRB assay relative to control; assay type: functional
Hs-578T = experiment: Antitumor activity against human Hs 578T cells assessed as growth inhibition at 10-'5 M incubated for 48 hrs by SRB assay relative to control; assay type: functional
CAKI-1 = experiment: Antitumor activity against human CAKI-1 cells assessed as growth inhibition at 10-'5 M incubated for 48 hrs by SRB assay relative to control; assay type: functional
KM12 = experiment: Antitumor activity against human KM12 cells assessed as growth inhibition at 10-'5 M incubated for 48 hrs by SRB assay relative to control; assay type: functional
MOLT-4 = experiment: Antitumor activity against human MOLT4 cells assessed as growth inhibition at 10-'5 M incubated for 48 hrs by SRB assay relative to control; assay type: functional
SK-MEL-5 = experiment: Antitumor activity against human SK-MEL-5 cells assessed as growth inhibition at 10-'5 M incubated for 48 hrs by SRB assay relative to control; assay type: functional
MDA-MB-231 = experiment: Antitumor activity against human MDA-MB-231 cells assessed as growth inhibition at 10-'5 M incubated for 48 hrs by SRB assay relative to control; assay type: functional
HOP-62 = experiment: Antitumor activity against human HOP62 cells assessed as growth inhibition at 10-'5 M incubated for 48 hrs by SRB assay relative to control; assay type: functional
UACC-62 = experiment: Antitumor activity against human UACC62 cells assessed as growth inhibition at 10-'5 M incubated for 48 hrs by SRB assay relative to control; assay type: functional
Aurora kinase B [3] = biological target: T1, Aurora kinase B; experiment: Inhibition of human Aurora B using [H-LRRASLG] as substrate in presence of [gamma-33P]-ATP incubated for 2 hrs by hotspot kinase assay
EKVX = experiment: Antitumor activity against human EKVX cells assessed as growth inhibition at 10-'5 M incubated for 48 hrs by SRB assay relative to control; assay type: functional
Homo sapiens = species: Homo sapiens; experiment: Selectivity ratio of IC50 for inhibition of human AURKB to IC50 for inhibition of human AURKA
Aurora kinase A = biological target: T3, Aurora kinase A (Homo sapiens, UniProt O14965); experiment: Inhibition of human Aurora A using [H-LRRASLG] as substrate in presence of [gamma-33P]-ATP incubated for 2 hrs by hotspot kinase assay
T3 sequence (O14965 whole entry): T2 sequence (whole entry)

Row | inhibition (Aurora kinase B [1]) [%] | inhibition [2] [%] | IC50 (Aurora kinase B [3]) [nM] | IC50 (Aurora kinase A) [nM] | SMILES | growth inhibition (GI) (UO-31) | growth inhibition (GI) (A498) | growth inhibition (GI) (SNB-75) | growth inhibition (GI) (CAKI-1) | growth inhibition (GI) (KM12) | other results
1 | 21.4 | 10.7 |  |  | CCOC(=O)c1cnc2ccc(Br)cc2c1Nc1cccc(S(=O)(=O)NC)c1 | >=20% | >=20% |  |  |  | growth inhibition (GI) (HCT-15): >=20%; growth inhibition (GI) (NCI/ADR-RES): >=20%; growth inhibition (GI) (NCI-H522): >=20%
2 | 33.7 | 6.15 |  |  | CCOC(=O)c1cnc2ccccc2c1Nc1cccc(S(=O)(=O)NC)c1 | >=20% | >=20% | >=20% | >=20% | >=20% | growth inhibition (GI) (T47D): >=20%; growth inhibition (GI) (IGROV-1): >=20%; growth inhibition (GI) (MCF7): >=20%; growth inhibition (GI) (Hs-578T): >=20%; growth inhibition (GI) (MOLT-4): >=20%; growth inhibition (GI) (SK-MEL-5): >=20%; growth inhibition (GI) (MDA-MB-231): >=20%; growth inhibition (GI) (HOP-62): >=20%; growth inhibition (GI) (UACC-62): >=20%
3 | 18.7 | 6.43 |  |  | CCOC(=O)c1cnc2ccc(C)cc2c1Nc1cccc(S(=O)(=O)NC)c1 |  |  |  |  |  | 
4 | 87.4 | 26.9 | 1620 |  | CCOC(=O)c1cnc2ccc(Br)cc2c1Nc1cccc(S(N)(=O)=O)c1 |  | >=20% | >=20% | >=20% |  | 
5 | 81 | 64.4 | 2990 | 980 | CCOC(=O)c1cnc2ccc(C)cc2c1Nc1cccc(NS(C)(=O)=O)c1 |  |  |  |  | >50% | growth inhibition (GI) (EKVX): >=20%; Ratio IC50 (Homo sapiens): 3
6 | 91.6 | 66 | 1350 | 1770 | CCOC(=O)c1cnc2ccc(Br)cc2c1Nc1cccc(NS(C)(=O)=O)c1 | >=20% | >=20% |  |  |  | 
